Target: T1, renin (Homo sapiens, UniProt P00797)
T1 sequence (P00797 67-406): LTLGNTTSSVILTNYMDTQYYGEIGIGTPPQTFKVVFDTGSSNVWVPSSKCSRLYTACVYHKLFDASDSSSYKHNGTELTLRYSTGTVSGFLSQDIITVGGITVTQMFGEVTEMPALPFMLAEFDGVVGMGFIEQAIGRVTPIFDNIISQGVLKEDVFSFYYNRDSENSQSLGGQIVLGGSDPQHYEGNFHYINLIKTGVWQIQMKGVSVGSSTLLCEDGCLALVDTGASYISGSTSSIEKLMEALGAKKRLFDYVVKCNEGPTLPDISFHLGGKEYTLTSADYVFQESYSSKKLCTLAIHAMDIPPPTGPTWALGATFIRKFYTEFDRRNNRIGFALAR
Assay: Renin inhibition
Assay type: biochemical

## [5(S)-prenyl-(5-benzyl)pyrrolin-4-one-3]-2(R)-isobutylacetate-[1-amino-1(S)-cyclohexylmethyl-2(R)3 3(S)-dihydroxy-5-methyl-hexane]-amide [Structure (10a)]
  concentration at which found to act as effective renin inhibitor: 700 nM
